{"source": "patent US11535630B2", "about": "“Apelin receptor (APJ) agonists and uses thereof” (Research Triangle Institute, priority 2015, dated 2022)", "data": [{"molecular_target": "T1, apelin receptor (APJ) (Homo sapiens, UniProt P35414)", "T1 sequence (P35414 1-380)": "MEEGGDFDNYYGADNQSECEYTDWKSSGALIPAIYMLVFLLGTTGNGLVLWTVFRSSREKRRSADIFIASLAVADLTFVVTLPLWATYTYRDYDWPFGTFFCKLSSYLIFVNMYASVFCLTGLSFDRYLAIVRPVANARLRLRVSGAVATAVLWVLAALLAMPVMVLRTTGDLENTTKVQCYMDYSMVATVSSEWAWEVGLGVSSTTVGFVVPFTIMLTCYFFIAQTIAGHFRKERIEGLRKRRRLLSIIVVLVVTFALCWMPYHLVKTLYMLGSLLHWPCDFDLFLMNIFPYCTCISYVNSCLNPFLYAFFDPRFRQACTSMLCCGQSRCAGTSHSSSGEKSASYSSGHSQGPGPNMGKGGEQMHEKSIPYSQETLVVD", "experiment": "In vitro apelin agonist activity (methods of Giddings et al., Apelin-13 as positive control)", "assay_type": "cell-based", "conditions": "EC50 (nM) Ave, in vitro apelin agonist activity, methods of Giddings et al., Apelin-13 as positive control", "excerpt": "(§1) Characterization of the Apelin Agonist Activity of the Compounds\n(§2) 1:39-47, the contents of which are hereby incorporated by reference in its entirety. Using the methods described in Giddings et al. and Apelin-13 as a positive control.", "units": {"EC50": "nM"}, "values": [{"compound": "O=C(C[C@H](CCN1CCOCC1)NC(=O)c1cc(-c2ccccc2C(F)(F)F)n(C2CCCC2)n1)NC1CCC1", "note": "[compound 491, (3S)-N-cyclobutyl-3-({1-cyclopentyl-5-[2-(trifluoromethyl)phenyl]-1H-pyrazol-3-yl}formamido)-5-(morpholin-4-yl)pentanamide]", "EC50": 68}]}, {"molecular_target": "T1, apelin receptor (APJ)", "experiment": "In vitro apelin agonist activity (methods of Giddings et al., Apelin-13 as positive control)", "assay_type": "cell-based", "conditions": "in vitro apelin agonist activity, methods of Giddings et al., Apelin-13 as positive control; read-out: EC50 (nM) Ave", "excerpt": "as §1, §2", "units": {"EC50": "nM"}, "values": [{"compound": "COc1cccc(F)c1-c1cc(C(=O)N[C@@H](CCN2CCCCC2)CC(=O)NC2CCC2)nn1C1CCCC1", "note": "[compound 372, (3S)-N-cyclobutyl-3-{[1-cyclopentyl-5-(2-fluoro-6-methoxyphenyl)-1H-pyrazol-3-yl]formamido}-5-(piperidin-1-yl)pentanamide]", "EC50": 90}, {"compound": "O=C(C[C@H](CCN1CCCCC1)NC(=O)c1cc(-c2ccccn2)n(C2CCCC2)n1)NC1CCC1", "note": "[compound 375, (3S)-N-cyclobutyl-3-{[1-cyclopentyl-5-(pyridin-2-yl)-1H-pyrazol-3-yl]formamido}-5-(piperidin-1-yl)pentanamide]", "EC50": "> 10000"}, {"compound": "O=C(C[C@H](CCN1CCCCC1)NC(=O)c1cc(-c2cscn2)n(C2CCCC2)n1)NC1CCC1", "note": "[compound 378, (3S)-N-cyclobutyl-3-{[1-cyclopentyl-5-(1,3-thiazol-4-yl)-1H-pyrazol-3-yl]formamido}-5-(piperidin-1-yl)pentanamide]", "EC50": 9390}, {"compound": "COc1cccc(OC)c1-c1cc(C(=O)N[C@@H](CCc2ccccc2)CC(N)=O)nn1C1CCCC1", "note": "[compound 392, (3S)-3-{[1-cyclopentyl-5-(2,6-dimethoxyphenyl)-1H-pyrazol-3-yl]formamido}-5-phenylpentanamide]", "EC50": "> 10000"}, {"compound": "O=C(O)C[C@H](CCN1CC[C@@H](F)C1)NC(=O)c1cc(-c2ccccc2C(F)(F)F)n(C2CCCC2)n1", "note": "[compound 590, (3S)-3-({1-cyclopentyl-5-[2-(trifluoromethyl)phenyl]-1H-pyrazol-3-yl]formamido)-5-[(3R)-3-fluoropyrrolidin-1-yl]pentanoic acid]", "EC50": 1160}, {"compound": "O=C(N[C@@H](CC(=O)N1CCCC(F)(F)C1)CS(=O)(=O)NC1CCC1)c1cc(-c2ccccc2C(F)(F)F)n(C2CCCC2)n1", "note": "[compound 541, N-[(2S)-1-(cyclobutylsulfamoyl)-4-(3,3-difluoropiperidin-1-yl)-4-oxobutan-2-yl]-1-cyclopentyl-5-[2-(trifluoromethyl)phenyl]-1H-pyrazole-3-carboxamide]", "EC50": 1060}, {"compound": "O=C(O)C[C@H](CCN1CC(F)(F)C(F)(F)C1)NC(=O)c1cc(-c2ccccc2C(F)(F)F)n(C2CCCC2)n1", "note": "[compound 574, (3S)-3-({1-cyclopentyl-5-[2-(trifluoromethyl)phenyl]-1H-pyrazol-3-yl}formamido)-5-(3,3,4,4-tetrafluoropyrrolidin-1-yl)pentanoic acid]", "EC50": 981}, {"compound": "O=C(O)C[C@H](COc1ccc(F)cc1)NC(=O)c1cc(-c2ccccc2C(F)(F)F)n(C2CCCC2)n1", "note": "[compound 545, (3R)-3-({1-cyclopentyl-5-[2-(trifluoromethyl)phenyl]-1H-pyrazol-3-yl}formamido)-4-(4-fluorophenoxy)butanoic acid]", "EC50": 1230}, {"compound": "O=C(O)C[C@H](CCN1CCCCC1=O)NC(=O)c1cc(-c2ccccc2C(F)(F)F)n(C2CCCC2)n1", "note": "[compound 587, (3S)-3-({1-cyclopentyl-5-[2-(trifluoromethyl)phenyl]-1H-pyrazol-3-yl}formamido)-5-(2-oxopiperidin-1-yl)pentanoic acid]", "EC50": 355}, {"compound": "COc1cccc(OC)c1-c1cc(C(=O)N[C@@H](CCc2ccccc2)CC(=O)Nc2nnn[nH]2)nn1C1CCCC1", "note": "[compound 381, (3S)-3-{[1-cyclopentyl-5-(2,6-dimethoxyphenyl)-1H-pyrazol-3-yl]formamido}-5-phenyl-N-(1H-1,2,3,4-tetrazol-5-yl)pentanamide]", "EC50": 647}, {"compound": "O=C(O)C[C@H](CCN1CCOCC1)NC(=O)c1cc(-c2ccccc2C(F)(F)F)n(C2CCCC2)n1", "note": "[compound 486, (3S)-3-({1-cyclopentyl-5-[2-(trifluoromethyl)phenyl]-1H-pyrazol-3-yl}formamido)-5-(morpholin-4-yl)pentanoic acid]", "EC50": 931}, {"compound": "CN(C(=O)C[C@H](CCN1CCCC[C@@H]1C(F)(F)F)NC(=O)c1cc(-c2ccccc2C(F)(F)F)n(C2CCCC2)n1)c1nccs1", "note": "[compound 489, (3S)-3-({1-cyclopentyl-5-[2-(trifluoromethyl)phenyl]-1H-pyrazol-3-yl}formamido)-N-methyl-N-(1,3-thiazol-2-yl)-5-[(2R)-2-(trifluoromethyl)piperidin-1-yl]pentanamide]", "EC50": 161}, {"compound": "CCN(CC)CC[C@@H](CC(=O)NC1CCC1)NC(=O)c1cc(-c2c(OC)cccc2OC)n(C2CCCC2)n1", "note": "[compound 314, (3S)-N-cyclobutyl-3-{[1-cyclopentyl-5-(2,6-dimethoxyphenyl)-1H-pyrazol-3-yl]formamido}-5-(diethylamino)pentanamide]", "EC50": 1840}, {"compound": "CCc1ccccc1-c1cc(C(=O)N[C@@H](CCN2CCCCC2)CC(=O)Nc2nccs2)nn1C1CCCC1", "note": "[compound 406, (3S)-3-{[1-cyclopentyl-5-(2-ethylphenyl)-1H-pyrazol-3-yl]formamido}-5-(piperidin-1-yl)-N-(1,3-thiazol-2-yl)pentanamide]", "EC50": 22}, {"compound": "O=C(O)C[C@H](CC(=O)N1CCCC(F)(F)C1)NC(=O)c1cc(-c2ccccc2C(F)(F)F)n(C2CCCC2)n1", "note": "[compound 509, (3S)-3-({1-cyclopentyl-5-[2-(trifluoromethyl)phenyl]-1H-pyrazol-3-yl}formamido)-5-(3,3-difluoropiperidin-1-yl)-5-oxopentanoic acid]", "EC50": 1060}, {"compound": "COc1cccc(OC)c1-c1cc(C(=O)N[C@@H](CCN2CCCCC2)CC(=O)Nc2ncco2)nn1C1CCCC1", "note": "[compound 339, (3S)-3-{[1-cyclopentyl-5-(2,6-dimethoxyphenyl)-1H-pyrazol-3-yl]formamido}-N-(1,3-oxazol-2-yl)-5-(piperidin-1-yl)pentanamide]", "EC50": 31}, {"compound": "O=C(O)C[C@H](CC(=O)N1CCCCC1)NC(=O)c1cc(-c2ccccc2C(F)(F)F)n(C2CCCC2)n1", "note": "[compound 508, (3S)-3-({1-cyclopentyl-5-[2-(trifluoromethyl)phenyl]-1H-pyrazol-3-yl}formamido)-5-oxo-5-(piperidin-1-yl)pentanoic acid]", "EC50": 475}, {"compound": "COc1cccc(OC)c1-c1cc(C(=O)N[C@@H](CCNCc2ccncc2)CC(=O)OC(C)(C)C)nn1C1CCCC1", "note": "[compound 306, tert-butyl (3S)-3-{[1-cyclopentyl-5-(2,6-dimethoxyphenyl)-1H-pyrazol-3-yl]formamido}-5-[(pyridin-4-ylmethyl)amino]pentanoate]", "EC50": "> 10000"}, {"compound": "COc1cccc(OC)c1-c1cc(C(=O)N[C@@H](CCN2CCCCC2)Cc2nnnn2C)nn1C1CCCC1", "note": "[compound 445, 1-cyclopentyl-5-(2,6-dimethoxyphenyl)-N-[(2S)-1-(1-methyl-1H-1,2,3,4-tetrazol-5-yl)-4-(piperidin-1-yl)butan-2-yl)-1H-pyrazole-3-carboxamide]", "EC50": 2830}, {"compound": "O=C(C[C@H](CCc1ccc(F)cc1)NC(=O)c1cc(-c2ccccc2C(F)(F)F)n(C2CCCC2)n1)NN1CCCC1", "note": "[compound 510, (3S)-3-({1-cyclopentyl-5-[2-(trifluoromethyl)phenyl]-1H-pyrazol-3-yl}formamido)-5-(4-fluorophenyl)-N-(pyrrolidin-1-yl)pentanamide]", "EC50": 2190}, {"compound": "COc1cccc(OC)c1-c1cc(C(=O)N[C@@H](CC2CCCC2)C(=O)O)nn1C1CCCC1", "note": "[compound 393, (2S)-3-cyclopentyl-2-{[1-cyclopentyl-5-(2,6-dimethoxyphenyl)-1H-pyrazol-3-yl]formamido}propanoic acid]", "EC50": 424}, {"compound": "COc1cccc(OC)c1-c1cc(C(=O)N[C@@H](CCc2cccnc2)CC(=O)NC2CCC2)nn1C1CCCC1", "note": "[compound 420, (3S)-N-cyclobutyl-3-{[1-cyclopentyl-5-(2,6-dimethoxyphenyl)-1H-pyrazol-3-yl]formamido}-5-(pyridin-3-yl)pentanamide]", "EC50": 883}, {"compound": "O=C(O)C[C@H](CCN1CCCC(F)(F)C1)NC(=O)c1cc(-c2ccccc2Cl)n(C2CCCC2)n1", "note": "[compound 433, (3S)-3-{[5-(2-chlorophenyl)-1-cyclopentyl-1H-pyrazol-3-yl]formamido}-5-(3,3-difluoropiperidin-1-yl)pentanoic acid]", "EC50": 151}, {"compound": "COc1cccc(OC)c1-c1cc(C(=O)N[C@@H](CCN2C(C)CCCC2C)CC(=O)NC2CCC2)nn1C1CCCC1", "note": "(stereo partly drawn) [compound 329, (3S)-N-cyclobutyl-3-{[1-cyclopentyl-5-(2,6-dimethoxyphenyl)-1H-pyrazol-3-yl]formamido}-5-(2,6-dimethylpiperidin-1-yl)pentanamide]", "EC50": 170}, {"compound": "O=C(C[C@H](CCN1CCCCC1)NC(=O)c1cc(-c2cccs2)n(C2CCCC2)n1)NC1CCC1", "note": "[compound 362, (3S)-N-cyclobutyl-3-{[1-cyclopentyl-5-(thiophen-2-yl)-1H-pyrazol-3-yl]formamido}-5-(piperidin-1-yl)pentanamide]", "EC50": 5860}, {"compound": "COc1cccc(OC)c1-c1cc(C(=O)N[C@@H](CCN2CCCCC2)Cc2nnc(C)o2)nn1C1CCCC1", "note": "[compound 343, 1-cyclopentyl-5-(2,6-dimethoxyphenyl)-N-[(2S)-1-(5-methyl-1,3,4-oxadiazol-2-yl)-4-(piperidin-1-yl)butan-2-yl]-1H-pyrazole-3-carboxamide]", "EC50": 1530}]}]}
